Experimental data published in US11247987B2, “Inhibiting ubiquitin specific peptidase 30” (FORMA Therapeutics, Inc., priority 2017, dated 2022).

Target: T1, human recombinant USP30 (Homo sapiens, UniProt Q70CQ3)
T1 construct: purchased Boston Biochem E-582
T1 sequence (Q70CQ3 1-517): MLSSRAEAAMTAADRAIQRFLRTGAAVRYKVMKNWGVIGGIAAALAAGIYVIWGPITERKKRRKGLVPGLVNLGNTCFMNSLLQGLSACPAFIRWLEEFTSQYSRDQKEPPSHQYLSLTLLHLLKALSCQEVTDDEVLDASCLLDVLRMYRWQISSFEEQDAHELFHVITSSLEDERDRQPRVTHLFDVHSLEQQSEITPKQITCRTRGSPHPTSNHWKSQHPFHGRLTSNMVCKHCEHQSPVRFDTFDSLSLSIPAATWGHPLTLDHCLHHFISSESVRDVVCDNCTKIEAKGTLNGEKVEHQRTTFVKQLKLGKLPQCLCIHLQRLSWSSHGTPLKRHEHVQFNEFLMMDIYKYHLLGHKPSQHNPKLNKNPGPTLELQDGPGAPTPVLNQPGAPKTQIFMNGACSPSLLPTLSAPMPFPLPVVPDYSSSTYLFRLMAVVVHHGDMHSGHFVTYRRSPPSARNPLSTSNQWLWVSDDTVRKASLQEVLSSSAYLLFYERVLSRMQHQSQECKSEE
Assay: Ubiquitin-Rhodamine 110 Assay for USP30 Activity (USP30 Inhibitor Biochemical Assay)
Details: 0.2 nM USP30, 25 nM Ub-Rh110, 30 min preincubation, 30 min at room temperature; read-out: USP30 potency range (USP30 biochemical IC50 assay, IC50 ranges)
Method: Example A: Biochemical Assay: Ubiquitin-Rhodamine 110 Assay for USP30 Activity (USP30 Inhibitor Biochemical Assay)
The assay was performed in a final volume of 9 μL in assay buffer containing 20 mM Tris-HCl (pH 8.0, (1M Tris-HCl, pH 8.0 solution; Corning 46-031-CM)), 1 mM GSH (L-glutathione reduced, Sigma-Aldrich, G4251-100G), 0.03% BGG (0.22 μM filtered, Sigma, G7516-25G), and 0.01% Triton X-100 (Sigma, T9284-10L). Nanoliter quantities of 10-point, 3-fold serial dilution in DMSO were pre-dispensed into 1536 assay plates (Corning, #3724BC) for a final test concentration of 25 μM to 1.3 nM, top to lowest dose, respectively. Concentration and incubation times were optimized for the maximal signal-to-background while maintaining initial velocity conditions at a fixed substrate concentration. The final concentration of USP30 (human recombinant USP30, Boston Biochem, cat. # E-582) in the assay was 0.2 nM. […] 3 μL of 2×USP30 was added to assay plates (pre-stamped with compound), preincubated for 30 minutes and then treated with 3 μL of 2×Ub-Rh110. Plates were incubated for 30 minutes at room temperature before addition of 3 μL of stop solution (final concentration of 10 mM citric acid (Sigma, 251275-500G)). Fluorescence was read on the Envision (excitation at 485 nm and emission at 535 nm; Perkin Elmer) or on the PheraSTAR (excitation at 485 nm and emission at 535 nm; BMG Labtech).
For all assay formats data were reported as percent inhibition compared with control wells based on the following equation: % inh=1−((FLU−AveLow)/(AveHigh−AveLow)) where FLU=measured Fluorescence, AveLow=average Fluorescence of no enzyme control (n=16), and AveHigh=average Fluorescence of DMSO control (n=16). IC50 values were determined by curve fitting of the standard 4 parameter logistic fitting algorithm included in the Activity Base software package: IDBS XE Designer Model205. Data is fitted using the Levenburg Marquardt algorithm.

SMILES | IC50
N#CN[C@@H]1C[C@H]1C(=O)Nc1ncc(C2CCCCC2)s1 (relative stereo) [Compound 11-1, trans-2-(cyanoamino)-N-(5-cyclohexyl-1,3-thiazol-2-yl)cyclopropane-1-carboxamide] | 1000 to 10000 nM
N#CN[C@H]1C[C@H]1C(=O)Nc1ncc(C2CCCCC2)s1 (relative stereo) [Compound 11-2, cis-2-(cyanoamino)-N-(5-cyclohexyl-1,3-thiazol-2-yl)cyclopropane-1-carboxamide] | 1000 to 10000 nM
CC1(C)CCCC[C@H]1c1ncc(NC(=O)[C@H]2C[C@H](NC#N)C2)s1 (single isomer, unassigned) [Compound 1-13] | 100 to 1000 nM
N#CN[C@H]1C[C@H](C(=O)Nc2ncc([C@@H]3CCCC[C@H]3C(F)(F)F)s2)C1 (single isomer, unassigned) [Compound 1-35] | 100 to 1000 nM
N#CN[C@H]1C[C@H](N2C[C@@H](Nc3ncc(C4CCCCC4)s3)CC2=O)C1 (single isomer, unassigned) [Compound 6-1] | 100 to 1000 nM
CC(C)(C)c1sc(N2CC[C@]3(C[C@H](NC#N)C3)C2=O)nc1Cl (single isomer, unassigned) [Compound 7-1, ([(2r,4s)-6-(5-tert-butyl-4-chloro-1,3-thiazol-2-yl)-5-oxo-6-azaspiro[3.4]octan-2-yl]amino)carbonitrile] | < 100 nM
CC(C)(C)c1sc(NC(=O)[C@]2(Cl)C[C@@H](NC#N)C2)nc1Cl (single isomer, unassigned) [Compound 9-1, (1s,3s)-N-(5-tert-butyl-4-chloro-1,3-thiazol-2-yl)-1-chloro-3-(cyanoamino)cyclobutane-1-carboxamide] | < 100 nM
CC(C)(C)c1sc(NC(=O)[C@]2(Cl)C[C@H](NC#N)C2)nc1Cl (single isomer, unassigned) [Compound 9-2, (1r,3r)-N-(5-tert-butyl-4-chloro-1,3-thiazol-2-yl)-1-chloro-3-(cyanoamino)cyclobutane-1-carboxamide] | 100 to 1000 nM
N#CN[C@H]1C[C@H](C(=O)Nc2ncc(C3CCOCC3)s2)C1 [Compound 1-1, trans-3-(cyanoamino)-N-[5-(oxan-4-yl)-1,3-thiazol-2-yl]cyclobutane-1-carboxamide] | 1000 to 10000 nM
Cn1nc(-c2ccccc2)cc1NC(=O)[C@H]1C[C@H](NC#N)C1 [Compound 1-2, (1r,3r)-3-(cyanoamino)-N-(1-methyl-3-phenyl-1H-pyrazol-5-yl)cyclobutane-1-carboxamide] | 100 to 1000 nM
N#CN[C@H]1C[C@H](C(=O)Nc2cnc(C3CCCCC3)s2)C1 [Compound 1-3, (1r,3r)-3-(cyanoamino)-N-(2-cyclohexyl-1,3-thiazol-5-yl)cyclobutane-1-carboxamide] | < 100 nM
CN(c1cnc(C2CCCCC2)s1)C(=O)[C@H]1C[C@H](NC#N)C1 [Compound 1-4, (1r,3r)-3-(cyanoamino)-N-(2-cyclohexyl-1,3-thiazol-5-yl)-N-methylcyclobutane-1-carboxamide] | 100 to 1000 nM
CN(c1ncc(C(C)(C)C)s1)C(=O)[C@H]1C[C@H](NC#N)C1 [Compound 1-5, (1r,3r)-N-(5-tert-butyl-1,3-thiazol-2-yl)-3-(cyanoamino)-N-methylcyclo-butane-1-carboxamide] | 100 to 1000 nM
Cn1nc(C2CCCCC2)cc1NC(=O)[C@H]1C[C@H](NC#N)C1 [Compound 1-6, (1r,3r)-3-(cyanoamino)-N-(3-cyclohexyl-1-methyl-1H-pyrazol-5-yl)cyclobutane-1-carboxamide] | 100 to 1000 nM
Cc1nc(C2CCCCC2)sc1NC(=O)[C@H]1C[C@H](NC#N)C1 [Compound 1-7, (1r,3r)-3-(cyanoamino)-N-(2-cyclohexyl-4-methyl-1,3-thiazol-5-yl)cyclobutane-1-carboxamide] | 100 to 1000 nM
CC(C)Oc1ccccc1-c1ncc(NC(=O)[C@H]2C[C@H](NC#N)C2)s1 [Compound 1-8, (1r,3r)-3-(cyanoamino)-N-{2-[2-(propan-2-yloxy)phenyl]-1,3-thiazol-5-yl}cyclobutane-1-carboxamide] | 100 to 1000 nM
N#CN[C@H]1C[C@H](C(=O)Nc2cnc(C3CC(F)(F)C3)s2)C1 [Compound 1-9, (1r,3r)-3-(cyanoamino)-N-[2-(3,3-difluoro-cyclobutyl)-1,3-thiazol-5-yl]cyclobutane-1-carboxamide] | 100 to 1000 nM
N#CN[C@H]1C[C@H](C(=O)Nc2nc(Cl)c(C3CCCCC3)s2)C1 [Compound 1-10, (1r,3r)-N-(4-chloro-5-cyclohexyl-1,3-thiazol-2-yl)-3-(cyanoamino)cyclo-butane-1-carboxamide] | < 100 nM
C[C@]1(C(=O)Nc2cnc(C3CCCCC3)s2)C[C@H](NC#N)C1 [Compound 1-11, (1r,3s)-3-(cyanoamino)-N-(2-cyclohexyl-1,3-thiazol-5-yl)-1-methylcyclobutane-1-carboxamide] | < 100 nM
CC1(C)CCCC[C@@H]1c1ncc(NC(=O)[C@H]2C[C@H](NC#N)C2)s1 [Compound 1-12, (1r,3r)-3-(cyanoamino)-N-{2-[(1S)-2,2-dimethylcyclohexyl]-1,3-thiazol-5-yl}cyclobutane-1-carboxamide] | < 100 nM
N#CN[C@H]1C[C@H](C(=O)Nc2sc(C3CCCCC3)nc2Cl)C1 [Compound 1-14, (1r,3r)-N-(4-chloro-2-cyclohexyl-1,3-thiazol-5-yl)-3-(cyanoamino)cyclo-butane-1-carboxamide] | 100 to 1000 nM
CC1(C)[C@H](NC#N)C[C@H]1C(=O)Nc1cnc(C2CCCCC2)s1 [Compound 1-15, (1R,3R)-3-(cyanoamino)-N-(2-cyclohexyl-1,3-thiazol-5-yl)-2,2-dimethylcyclobutane-1-carboxamide] | 100 to 1000 nM
COCc1nc(NC(=O)[C@H]2C[C@H](NC#N)C2)sc1C1CCCCC1 [Compound 1-16, (1r,3r)-3-(cyanoamino)-N-[5-cyclohexyl-4-(methoxymethyl)-1,3-thiazol-2-yl]cyclobutane-1-carboxamide] | < 100 nM
N#CN[C@H]1C[C@H](C(=O)Nc2sc(C3CCCCC3)nc2F)C1 [Compound 1-17, (1r,3r)-3-(cyanoamino)-N-(2-cyclohexyl-4-fluoro-1,3-thiazol-5-yl)cyclobutane-1-carboxamide] | 100 to 1000 nM
N#CN[C@H]1C[C@@H](C(=O)Nc2nc(Cl)c(C3CCCCC3)s2)C1 [Compound 1-18, (1s,3s)-N-(4-chloro-5-cyclohexyl-1,3-thiazol-2-yl)-3-(cyanoamino)cyclo-butane-1-carboxamide] | 100 to 1000 nM
CC(C)(C)c1sc(NC(=O)[C@H]2C[C@H](NC#N)C2)nc1Cl [Compound 1-19, (1r,3r)-N-(5-tert-butyl-4-chloro-1,3-thiazol-2-yl)-3-(cyanoamino)cyclo-butane-1-carboxamide] | < 100 nM
N#CN[C@H]1C[C@H](C(=O)Nc2ccc(Cl)c(C(F)(F)F)c2)C1 [Compound 1-20, (1r,3r)-N-[4-chloro-3-(trifluoromethyl)phenyl]-3-(cyano-amino)cyclobutane-1-carboxamide] | 1000 to 10000 nM
C[C@@H]1CCCC[C@@H]1c1cnc(NC(=O)[C@H]2C[C@H](NC#N)C2)s1 [Compound 1-21, (1r,3r)-3-(cyanoamino)-N-{5-[(1S,2R)-2-methylcyclohexyl]-1,3-thiazol-2-yl}cyclobutane-1-carboxamide] | 100 to 1000 nM
C[C@H]1CCCC[C@H]1c1cnc(NC(=O)[C@H]2C[C@H](NC#N)C2)s1 [Compound 1-22, (1r,3r)-3-(cyanoamino)-N-{5-[(1R,2S)-2-methylcyclohexyl]-1,3-thiazol-2-yl}cyclobutane-1-carboxamide] | 100 to 1000 nM
C[C@H]1CCCC[C@@H]1c1cnc(NC(=O)[C@H]2C[C@H](NC#N)C2)s1 [Compound 1-23, (1r,3r)-3-(cyanoamino)-N-{5-[(1S,2S)-2-methylcyclohexyl]-1,3-thiazol-2-yl}cyclobutane-1-carboxamide] | < 100 nM
